Test results reported in patent US20240226086A1, “LIQUID PHARMACEUTICAL FORMULATIONS OF QUINOLINES” (TaP Pharmaceuticals, AG, priority 2022, published 2024).
Counter-ions that a name gives are not always drawn. Like-named read-outs stand apart in the source and are kept apart here.

Tests used:
[1] = HCQ sulfate solubility in liquid glycerol formulations, HPLC assay for HCQ; format: physicochemical; details: dissolution protocol of Example 1
Description: Liquid HCQ formulations. […] Step 1: 63 g of glycerol were weighed and transferred into a 50 ml beaker with magnetic stir bar and heated to 70° C. while stirred. Step 2: 10 g HCQ sulfate were weighed and slowly added to the 70° C. glycerol of Step 1 with continued stirring and with maintenance of 70° C. until a clear liquid solution was formed. Step 3: 10 g HCQ sulfate was weighed and slowly added to resultant clear liquid solution of Step 3 with continued stirring and with maintenance of 70° C. until a clear liquid solution was formed. Step 4: the resultant clear liquid solution of Step 4 was cooled to room temperature.
HPLC steps. Step 1. […] The chromatogram was recorded and used to identify any peak eluting at the retention time of major peaks. […] The chromatogram was recorded and used to identify the HCQ peak and calculate its signal to noise ratio. […] The chromatogram was recorded and used to identify HCQ and HCQ-n-oxide peaks and the resolution between those peaks was calculated. […] The chromatograms were recorded and used to calculate the average and % RSD for the HCQ peak area responses obtained from the six replicate injections of standard solution. The tailing factor was determined. […] The chromatograms were recorded and used to calculate average peak area responses of the HCQ obtained from the two replicate injections of standard check solution. The similarity factor was calculated. […]

[2] = cited from earlier work

Compound: CCN(CCO)CCCC(C)Nc1ccnc2cc(Cl)ccc12 (centres unmarked) [HCQ, 2-[[4-[(7-Chloro-4-quinolyl)amino]pentyl]ethylamino] ethanol sulfate (1:1)]
- HCQ dissolved in glycerol [1]: 273 mg/mL
- Solubility, Inference as USP ([2]; solvent Alcohol): Practically insoluble or slightly soluble
- Solubility, Inference as USP ([2]; solvent Chloroform): Practically insoluble or slightly soluble
- Solubility, Inference as USP ([2]; solvent Dimethylformamide): Sparingly soluble (10-33)
- Solubility, Inference as USP ([2]; solvent Dimethylsulfoxide): Insoluble or sparingly soluble
- Solubility, Inference as USP ([2]; solvent Ethanol): Sparingly soluble or insoluble
- Solubility, Inference as USP ([2]; solvent Ether): Practically insoluble or very slightly soluble
- Solubility, Inference as USP ([2]; solvent Glycerol): Very slightly soluble (0.1-1)
